This is an account of results in US10351706B2, “Near-infrared fluorescent dyes and uses thereof” (East China University of Science and Technology, priority 2015, dated 2019).

Data set [1] is described as follows: UV-visible absorption spectral test (Shimadzu UV2600 UV-visible spectrometer). In kind it is physicochemical. The settings on record: different dyes in chloroform solution. The text has this: (§1) The following data are the spectral test data of compound 3d in different solvents (UV-visible data are taken from Shimadzu UV2600 UV-visible spectrometer and fluorescence data are taken from PTI QM4 fluorescence spectrometer):
(§2) The following data are the spectral test data of different dyes in chloroform solution: […]

Data set [2] is described as follows: Fluorescence spectral test (PTI QM4 fluorescence spectrometer). To be noted: different dyes in chloroform solution. The data set is classed as physicochemical.
From the text: as §1, §2

In data set [1], `CCN(CC)c1ccc2cc3c(cc2c1)C1(c2ccccc2Oc2ccccc21)c1cc2c(cc1=C3c1ccccc1C)C=CC(=[N+](CC)CC)C=2` [Compound 1a] had an Extinction coefficient of 217000 cm^−1M^−1 and a Maximum absorption wavelength of 836 nm. Besides, in data set [2], the Maximum emission wavelength is 864 nm.
As to `Cc1ccccc1C1=c2cc3c(cc2C2(c4ccccc4Oc4ccccc42)c2cc4cc(O)ccc4cc21)=CC(=O)C=C3` [Compound 4b], in data set [1], the Extinction coefficient came out at 131000 cm^−1M^−1 and the Maximum absorption wavelength worked out at 779 nm. In data set [2], the Maximum emission wavelength is given as 804 nm.
